Legend:
[1] = Partial molar volume from density measurements of dendrimer only solutions; type: physicochemical
[2] = biological target: α-chymotrypsinogen A (aCgn) (Bos taurus, UniProt P00766); test: DSC denaturation midpoint temperature (Tm) of aCgn; type: physicochemical, Bovine; conditions: for dTm/d[3] aCgn denaturation midpoint temperature increment: 1 mg/mL aCgn, 20 mM sodium citrate pH 5, maximum dendrimer 0.2 mol/L; for rate of increase of Tm of aCgn: concentrations less than 0.2 mol/L
Description: The thermodynamic stability of aCgn in the presence of the arginine salts was determined by DSC (Microcal VP-Differential Scanning calorimeter located in the Biophysical Instrumentation Facility (BIF) at MIT). Each reading began with a minimum of three buffer-buffer up and down scans (in this case, the buffer also contains the cosolute of interest) to establish a reproducible thermal history followed by a single protein-buffer up scan. aCgn was analyzed at a concentration of 1 mg/mL in a 20 mM sodium citrate pH 5 buffer containing the cosolute of interest and a scan rate of 90° C./hour. The data was analyzed in the MicroCal Origin® plotting software. In the analysis, the last buffer-buffer reference scan was first subtracted from the data and then the data was normalized with respect to the protein concentration, cell volume, and scan rate. The baseline (which was progressed through the peak) was then subtracted from the plot and the denaturation midpoint temperature, Tm, was taken as the temperature at the peak maximum of the unfolding event. For each arginine salt, three concentrations (including zero concentration) were tested and Tm values with respect to cosolute concentration were fitted to a linear trend.
The thermostability of aCgn at 1 mg/mL in the presence of the modified dendrimers was assessed by determining the denaturation midpoint temperature (Tm) from DSC scans, which is a qualitative indicator of how the conformational stability of the protein is perturbed. Ghosh K et al. (2009) Proc Natl Acad Sci USA 106:10649-10654.

Structure (SMILES)	V0 partial molar volume at infinite dilution [1] [L/mol]	dTm/d[3] aCgn denaturation midpoint temperature increment [2] [K * L/mol]	rate of increase of Tm of aCgn [2] [° C.*M^−1]
N=C(N)NCCNC(=O)CCN(CCC(=O)NCCNC(=N)N)CCN(CCC(=O)NCCNC(=N)N)CCC(=O)NCCNC(=N)N.O=P(O)(O)O.O=P(O)(O)O.O=P(O)(O)O.O=P(O)(O)O.O=P(O)(O)O.O=P(O)(O)O [Gdm(H2PO4)]	0.7254	37.4	37.4
N=C(N)NCCNC(=O)CCN(CCC(=O)NCCNC(=N)N)CCN(CCC(=O)NCCNC(=N)N)CCC(=O)NCCNC(=N)N.O=S(=O)(O)O.O=S(=O)(O)O.O=S(=O)(O)O [Gdm(SO4)1/2]	0.5665	15.2	15.2

— patent publication US9410142B2, “Dendrimer-based excipients for the attenuation of protein aggregation” (Massachusetts Institute of Technology, priority 2010, dated 2016)
